In publication PMC4978154, “Phase I metabolites of mephedrone display biological activity as substrates at monoamine transporters” (British Journal of Pharmacology, 2016):
Where two headings read alike, the source gives them in different places.

Columns and labels:
[1] = tested on: extracellular 5-HT in rat nucleus accumbens; experiment: Microdialysis in rat nucleus accumbens, dialysate 5-HT; format: in vivo; conditions: for increase of dialysate 5-HT above baseline: rat nucleus accumbens
Method: (§1) In vivo microdialysis procedures were carried out as previously described with minor modifications (Baumann et al., 2012). Briefly, male rats anaesthetized with sodium pentobarbital (60 mg·kg^−1, i.p.) received surgically implanted jugular catheters, and intracerebral guide cannulae aimed at the nucleus accumbens (AP +1.6 mm, ML −1.7 mm relative to bregma; −6.2 mm relative to dura) (Paxinos and Watson, 2007). After a 7–10 day recovery, each rat was placed into a chamber equipped with photobeams for the detection of motor parameters (TruScan, Harvard Apparatus, Holliston, MA, USA) and allowed to acclimatize overnight. Food and water were available ad libitum during the acclimatization period. On the following morning, catheters were attached to PE 50 extension tubes, and 0.5 × 2 mm microdialysis probes (CMA/12, Harvard Apparatus, Holliston, MA, USA) were inserted into the guide cannulae. Ringers' solution (150 mM NaCl, 2.8 mM KCl and 2.0 mM CaCl2) was perfused through the probes at 0.6 μL·min^−1 for 3 h. To commence experiments, dialysate samples ([…]) were collected at 20 min intervals, and drug or saline treatments were given after three baseline samples were obtained. Rats received two sequential i.v. injections of mephedrone or its metabolites, with 1 mg·kg^−1 administered at time zero, followed by 3 mg·kg^−1 60 min later. Saline was administered using the same schedule in a separate group of rats. Dialysate concentrations of dopamine and 5‐HT were quantified using HPLC coupled to electrochemical detection (Baumann et al., 2012). Chromatographic data were exported to an Empower software system (Waters, Inc., Milford, MA, USA) for peak identification, integration and analysis.
Correct probe placements were assessed after the microdialysis experiments. Rats were killed by CO2 narcosis then decapitated. Brains were quickly removed and immersion fixed in 10% paraformaldehyde for 1 week. Subsequently, brains were sectioned on a cryostat, and the location of each probe tip was verified by inspection of photographic images of the brain taken with a digital camera using the macro lens setting.
(§2) Calculations were performed using Microsoft Excel® 2010 (Microsoft Corporation, Redmond, WA, USA) and GRAPHPAD PRISM 5.0. (GraphPad Software Inc., La Jolla, CA, USA). IC50 values for uptake inhibition and EC50 values for release were determined by nonlinear regression fits. Release data expressed as AUC were analysed by one‐way ANOVA followed by Bonferroni's multiple comparison test. Microdialysis and locomotor data were analysed by two‐way ANOVA (drug treatment × time) followed by Bonferroni's test. The effect of monensin treatment on basal efflux of tritiated substrate was analysed with the Mann–Whitney test. P values less than 0.05 (i.e. P < 0.05) were considered significant. The data and statistical analysis comply with the recommendations on experimental design and analysis in pharmacology (Curtis et al., 2015).

hDAT = molecular target: T1, hDAT (Homo sapiens, UniProt Q01959); experiment: Transporter uptake inhibition in HEK293 cells expressing hDAT; format: cell-based; conditions: [3H]-MPP+ uptake; for IC50: mean (95% confidence interval)
T1 construct: expressed in transfected cells
T1 sequence (Q01959 whole entry): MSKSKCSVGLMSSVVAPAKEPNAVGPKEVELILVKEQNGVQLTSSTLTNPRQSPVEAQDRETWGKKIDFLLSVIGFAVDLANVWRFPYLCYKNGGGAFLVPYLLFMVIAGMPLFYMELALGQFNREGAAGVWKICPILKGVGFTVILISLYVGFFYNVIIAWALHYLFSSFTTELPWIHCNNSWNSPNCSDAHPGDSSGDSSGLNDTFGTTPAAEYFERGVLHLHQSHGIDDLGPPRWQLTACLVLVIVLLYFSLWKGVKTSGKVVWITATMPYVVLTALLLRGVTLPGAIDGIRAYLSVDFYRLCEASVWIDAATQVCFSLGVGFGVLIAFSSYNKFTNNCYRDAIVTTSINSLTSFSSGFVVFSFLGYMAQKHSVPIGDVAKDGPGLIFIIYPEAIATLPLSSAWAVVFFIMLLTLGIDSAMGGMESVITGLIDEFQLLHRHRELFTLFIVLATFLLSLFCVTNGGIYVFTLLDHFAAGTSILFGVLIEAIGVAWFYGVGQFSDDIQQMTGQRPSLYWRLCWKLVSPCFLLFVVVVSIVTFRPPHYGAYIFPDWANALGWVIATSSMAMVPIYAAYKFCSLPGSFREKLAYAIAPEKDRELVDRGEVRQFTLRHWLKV
Method: The generation of HEK293 cells stably expressing the human isoforms of DAT (hDAT) and NET (hNET) was carried out as described previously (Scholze et al., 2002). For SERT, the human isoform (hSERT) was cloned in frame with yellow fluorescent protein (Schmid et al., 2001). The generation of a stable cell line was performed as described by Hilber and colleagues (Hilber et al., 2005). HEK293 cells were maintained in humidified atmosphere (5% CO2, 37°C) in DMEM, supplemented with 10% heat‐inactivated FBS and penicillin (100 u 100 mL^−1) and streptomycin (100 μg 100 mL^−1). Selection pressure was maintained by adding geneticin (50 μg·mL^−1) to the cell culture media.
Uptake experiments were conducted as described previously (Sitte et al., 2001) with minor modifications. In brief, HEK293 cells expressing hDAT, hNET or hSERT were seeded into poly‐D‐lysine (PDL) coated 96‐well plates at a density of 40 000 cells per well. The next day, DMEM was aspirated and replaced with Krebs HEPES buffer (KHB, 25 mM HEPES, 120 mM NaCl, 5 mM KCl, 1.2 mM CaCl2, and 1.2 mM MgSO4, 5 mM D‐glucose, pH adjusted to 7.3 with NaOH) (200 μL per well), and cells were pre‐incubated with various concentrations of mephedrone or its metabolites for 5 min (50 μL per well). Subsequently, 0.1 μM of [^3H]‐5‐HT or 0.02 μM of [^3H]‐MPP^+ were added, and uptake was terminated after 1 (hSERT) or 3 min (hDAT, hNET) by washing the cells with 200 μL of ice‐cold KHB. Cells were lysed with 1% SDS, and tritium uptake was determined by scintillation counting. Nonspecific uptake was determined in the presence of 10 μM paroxetine (hSERT) or 10 μM mazindol (hDAT and hNET).
as §2

rats = experiment: Locomotor activity (photobeam breaks) during microdialysis; format: in vivo; conditions: rat; for effect on motor activity: 3 mg·kg−1 i.v.; for effect on motor behaviour (activity): 1 and 3 mg·kg−1 i.v.
Method: as §1, §2

NET = molecular target: T2, NET (Rattus norvegicus, UniProt Q63380); experiment: Transporter release assay in rat brain synaptosomes, NET; format: biochemical; conditions: [3H]-MPP+, mean (95% confidence interval)
T2 construct: a native tissue preparation that contains plasma membrane transporters in situ; from tissue; host or cells: rat whole brain minus striatum and cerebellum, synaptosomes
T2 sequence (Q63380 1-617): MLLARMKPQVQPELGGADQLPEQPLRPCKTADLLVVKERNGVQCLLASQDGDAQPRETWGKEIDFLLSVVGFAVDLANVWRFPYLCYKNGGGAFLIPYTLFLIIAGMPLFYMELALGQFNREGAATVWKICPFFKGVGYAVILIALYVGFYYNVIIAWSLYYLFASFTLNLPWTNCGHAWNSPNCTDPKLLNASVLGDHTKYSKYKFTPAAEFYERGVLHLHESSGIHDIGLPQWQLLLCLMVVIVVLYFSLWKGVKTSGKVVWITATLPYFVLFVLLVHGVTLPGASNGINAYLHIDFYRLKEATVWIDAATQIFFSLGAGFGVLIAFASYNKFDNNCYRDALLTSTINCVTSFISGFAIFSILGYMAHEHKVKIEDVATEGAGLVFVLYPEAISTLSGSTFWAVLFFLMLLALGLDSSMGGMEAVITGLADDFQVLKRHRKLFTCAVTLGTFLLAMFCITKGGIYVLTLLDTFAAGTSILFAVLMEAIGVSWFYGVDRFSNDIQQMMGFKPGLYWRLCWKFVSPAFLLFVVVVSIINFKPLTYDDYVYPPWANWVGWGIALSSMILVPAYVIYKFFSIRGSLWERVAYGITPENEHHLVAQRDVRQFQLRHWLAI
Method: The ability of mephedrone and its metabolites to evoke release via DAT, NET and SERT was determined in rat brain synaptosomes as previously described (Baumann et al., 2012). Rats were killed with CO2, decapitated, and brains were rapidly removed and dissected on ice. Synaptosomes were prepared from striatum for DAT assays, whereas synaptosomes were prepared from whole brain minus striatum and cerebellum for the NET and SERT assays. [^3H]‐MPP^+ (9 nM) was used as the radiolabelled substrate for DAT and NET, whereas [^3H]‐5‐HT (5 nM) was used as the radiolabelled substrate for SERT. All buffers used in the release assays contained 1 μM reserpine to block vesicular uptake of substrates. The selectivity of assays was optimized for a single transporter by including unlabelled compounds [nomifensine and 1‐(2‐diphenylmethoxyethyl)‐4‐(3‐phenylpropyl)piperazine dihydrochloride (GBR12935) for SERT; GBR12935 and citalopram for NET; citalopram and desipramine for DAT] to prevent the uptake of [^3H]‐MPP^+ or [^3H]‐5‐HT by competing transporters. Synaptosomes were preloaded with radiolabelled substrate in Krebs‐phosphate buffer, which consisted of 126 mM NaCl, 2.4 mM KCl, 0.5 mM KH2PO4, 1.1 mM CaCl2, 0.83 mM MgCl2, 0.5 mM Na2SO4, 11.1 mM glucose, 13.7 mM Na2HPO4, 1 mg·mL^−1 ascorbic acid and 50 μM pargyline (pH = 7.4) for 1 h (steady state). […] Assays were terminated by vacuum filtration, and retained radioactivity was quantified by liquid scintillation counting.
as §2, with “(GraphPad Software Inc., La Jolla, CA, USA).” left out, “P values less than 0.05 (i.e. P < 0.05) were considered significant. The data and statistical analysis comply with the recommendations on experimental design and analysis in pharmacology (Curtis et al., 2015).” left out

[2] = 3 mg·kg−1 i.v. (60 min after 1 mg·kg−1)
[3] = IC50 on uptake mediated by hDAT
[4] = EC50 on transporter mediated efflux, NET

Structure (SMILES) | increase of dialysate 5-HT above baseline ([1]; 1 mg·kg−1 i.v.) | increase of dialysate 5-HT above baseline [1, 2] | IC50 (hDAT; [3]) | efficacy of uptake inhibition at hDAT (hDAT) | effect on motor activity (rats) | effect on motor behaviour (activity) (rats) | EC50 (NET; [4]) | effect on extracellular neurotransmitters in the brain (5-HT) ([1]; systemic administration, 1 and 3 mg·kg−1 i.v., rat) | IC50 (hDAT; read-out: IC50 on uptake mediated by hDAT) | EC50 (NET; read-out: EC50 on transporter mediated efflux, NET)
CNC(C)C(=O)c1ccc(C)cc1.Cl (stereo not shown) [Mephedrone, 2‐Methylamino‐1‐(p‐tolyl)propan‐1‐one hydrochloride] | 15 fold | 25 fold | 770 nM | fully efficacious inhibitors of uptake | significantly stimulated motor activity | increased activity | 90 nM |  |  | 
Cc1ccc(C(=O)C(C)N)cc1.Cl (stereo not shown) [Nor‐mephedrone, 2‐amino‐1‐(p‐tolyl)propan‐1‐one hydrochloride] | 15 fold | 25 fold | 6350 nM | fully efficacious inhibitors of uptake | significantly stimulated motor activity | increased activity | 100 nM |  |  | 
CNC(C)C(=O)c1ccc(CO)cc1.Cl (stereo not shown) [4‐OH‐mephedrone, 1‐(4‐(hydroxymethyl)phenyl)‐2‐(methylamino)propan‐1‐one hydrochloride] |  |  |  | fully efficacious inhibitors of uptake |  | did not |  | no significant effect | 2920 nM | 150 nM
